According to patent publication US6376666B1 (Nauchno-Issledovatelsky Institut Farmakologii Rossiiskoi …, priority 1994, dated 2002):
Marks after values point to notes of the source that are not given here.

Legend:
Type in all cases: in vivo
cats = assay: hemodynamics and activity of intact heart in cats under anesthesia; details: for Cardiac volume, change from basal level / Heart rate, change from basal level / Mean blood flow accelaration (aortic), change from basal level / Mean blood pressure, change from basal level / Stroke volume, change from basal level: cats, 1.0 mg/kg i.v.
Protocol: The effects of compounds on the hemodynamics and activity of intact heart were studied in cats under anesthesia. The experiments were carried out under conditions of open chest. The phase curve of aortic blood flow was the main index of cardiac activity. The compounds were administered i.v. in physiological solution. The t-Student' test was used to estimate the statistical significance.

[1] = tested on: ischemized myocardium of cats; assay: ST-segment elevation during 5 min occlusions of coronary artery (acute coronary deficiency); details: for change in mean elevation of ST-segment vs control occlusion: cats, 1.0 mg/kg i.v.
Protocol: These experiments were conducted in cats weighing 2,5-4,0 kg under anasthesia by i.v. injection of nembutal (40 mg/kg) in open chest conditions. Epicardium electrogram in 3-4 leads was registered in “Mingograph-81”. The value of mean elevation of ST-segment during 5 min occlusions of anterior left descending coronary artery with 15 min reperfusions between them was the main index of intensity of reversible ischemized damage of myocardium.
The statistical calculation was carried out with non-parametric Wilcocson method for associated variants.

Balb/c mice = assay: open-field test, Balb/c mice (passive type of emotional-stress reaction); details: i.p., screening
Description: The main point of this approach consists in comparative analysis of the behavioural effects of tested compounds in two inbred strains of mice Balb/c and C57B1/6 with different hereditary types of emotional-stress reactions (ESR). The anxiolytic effect was estimated as the activation of the locomotor activity of animals with “passive” type of ESR (Balb/c mice). The main index describing the sedative properties of tested drugs was the inhibition of the locomotor activity of mice with “active” type of ESR (C57B1/6 strain). The anxioselectivity was evaluated according to coincidence of doses range which activated or inhibited the behavior of mice of different strains. Earlier this approach has been successfully used for estimation of anxioselective activity of such known drugs as phenazepam [Seredenin S. B. et al., Bull.Exp.Biol.Med., 1979, v.88, N7, p.38; Seredenin S. B. et al., Ann.Inst.Super.Sanita, 1990, v.26, N1, p.81-88], mexidol [Seredenin S. B. et al., Khimiko-Farmatsevt.Zhurnal, 1987, N2, p.134; Vironina T. A., Seredenin S. B., Ann.Inst.Super.Sanita, 1988, v.24, N3, p.461-466] and gidazepam [Seredenin S. B. et al., in: “Gidazepam” Kiev, Naukova Dumka, 1992, p.92; Seredenin S. B., Blednov Yu. A., Phys.Chem.Biol.Med., 1993, v.1, N1, p.53-60].
Male C57B1/6 and Balb/c mice (“Stolbovaya” animal farm), weighing 20-22 g were used. The animals were housed in a separate animal room in groups of ten and maintained on 12 h light-dark cycle (light from 8.00 till 20.00) with free access to standard food and water during two weeks before experiment. Testing was performed between 9.00 and 13.00. Every used compound was administered intraperitoneally in water solutions 30 min before testing (0,1 ml solution per 10 g of weight). The “open-field” apparatus consisted of cylinder closed from one end, illuminated by four 75 W lamps fixed to the walls 100 cm above the floor. The “open-field” apparatus was 100 cm in diameter and white-painted; the floor was marked with 3 black circles and some radial lines divided the floor into 16 peripheral and 8 central segments. 30 min after injection each animal was placed in the same peripheral square on the floor for 3 min of testing after 1 min exposure in the dark chamber. The following behavior variables were recorded: 1) the number of crossings in the peripheral area (peripheral activity); 2) the number of crossings in the central segments (central activity); 3) the number of rearings (vertical activity); 4) the emotionality was measured as the number of defecations during the test. The sum of all types of locomotor activity was marked as total activity. The t-Student test was used for statistical analysis.

SMILES: CCOc1ccc2nc(SCCN(C)C)[nH]c2c1 [VIII]
- effect on contractile function of heart, in words (cats; cats i.v., same doses as bradycardia): slightly enhanced the contractility of myocardium
- duration of bradycardia after administration (cats; cats i.v., VIII 1,0, IX 0,5 and 1,0, XX 1,0 and 2,0 mg/kg): 30 min
- effect on heart rate, in words (cats; cats i.v., VIII 1,0, IX 0,5 and 1,0, XX 1,0 and 2,0 mg/kg, XXIII 1.0, verapamil 0.5 mg/kg): expressed bradycardia
- Cardiac volume, change from basal level (cats; after 2 min): +7.0 ± 2.9%
- Heart rate, change from basal level (cats; after 2 min): −10.9 ± 2.3 %
- Mean blood flow accelaration (aortic), change from basal level (cats; after 2 min): +3.3 ± 2.7%
- Mean blood pressure, change from basal level (cats; after 2 min): −1.8 ± 3.8%
- Stroke volume, change from basal level (cats; after 2 min): +20.6 ± 6.5 %
- Cardiac volume, change from basal level (cats; after 5 min): +6.0 ± 12.8%
- Heart rate, change from basal level (cats; after 5 min): −3.2 ± 1.4%
- Mean blood flow accelaration (aortic), change from basal level (cats; after 5 min): −2.0 ± 9.0%
- Mean blood pressure, change from basal level (cats; after 5 min): −2.8 ± 5.7%
- Stroke volume, change from basal level (cats; after 5 min): +5.6 ± 10.8%
- Cardiac volume, change from basal level (cats; after 10 min): −7.5 ± 9.6%
- Heart rate, change from basal level (cats; after 10 min): −4.4 ± 1.9%
- Mean blood flow accelaration (aortic), change from basal level (cats; after 10 min): −5.2 ± 7.8%
- Mean blood pressure, change from basal level (cats; after 10 min): −7.8 ± 5.7%
- Stroke volume, change from basal level (cats; after 10 min): −3.5 ± 8.7%
- Cardiac volume, change from basal level (cats; after 20 min): −7.2 ± 9.2%
- Heart rate, change from basal level (cats; after 20 min): −3.2 ± 1.8%
- Mean blood flow accelaration (aortic), change from basal level (cats; after 20 min): −6.2 ± 7.6%
- Mean blood pressure, change from basal level (cats; after 20 min): −12.0 ± 5.0%
- Stroke volume, change from basal level (cats; after 20 min): −4.5 ± 8.4%
- Cardiac volume, change from basal level (cats; after 30 min): −2.2 ± 3.0%
- Heart rate, change from basal level (cats; after 30 min): −5.4 ± 3.1%
- Mean blood flow accelaration (aortic), change from basal level (cats; after 30 min): +1.2 ± 2.1%
- Mean blood pressure, change from basal level (cats; after 30 min): −6.5 ± 5.7%
- Stroke volume, change from basal level (cats; after 30 min): +3.5 ± 3.5%
- Cardiac volume, change from basal level (cats; after injection): 38.1 ± 11.6 %
- Heart rate, change from basal level (cats; after injection): −15.3 ± 1.1 %
- Mean blood flow accelaration (aortic), change from basal level (cats; after injection): +31.3 ± 10.8%
- Mean blood pressure, change from basal level (cats; after injection): −14.8 ± 12.5%
- Stroke volume, change from basal level (cats; after injection): 63.2 ± 14.0 %
- change in mean elevation of ST-segment vs control occlusion ([1]; occlusion 20 min after injection, 30 sec of occlusion): −0.45 mv
- change in mean elevation of ST-segment vs control occlusion ([1]; occlusion 20 min after injection, 1 min of occlusion): −0.30 mv
- change in mean elevation of ST-segment vs control occlusion ([1]; occlusion 20 min after injection, 2 min of occlusion): −0.50 mv
- change in mean elevation of ST-segment vs control occlusion ([1]; occlusion 20 min after injection, 4 min of occlusion): −0.50 mv
- change in mean elevation of ST-segment vs control occlusion ([1]; occlusion 20 min after injection, 5 min of occlusion): −0.25 mv
- change in mean elevation of ST-segment vs control occlusion ([1]; occlusion 40 min after injection, 15 sec of reperfusion): −0.75 mv
- change in mean elevation of ST-segment vs control occlusion ([1]; occlusion 40 min after injection, 30 sec of occlusion): −0.55 mv
- change in mean elevation of ST-segment vs control occlusion ([1]; occlusion 40 min after injection, 1 min of occlusion): −0.35 mv
- change in mean elevation of ST-segment vs control occlusion ([1]; occlusion 40 min after injection, 2 min of occlusion): −0.40 mv
- change in mean elevation of ST-segment vs control occlusion ([1]; occlusion 40 min after injection, 4 min of occlusion): −0.50 mv
- change in mean elevation of ST-segment vs control occlusion ([1]; occlusion 40 min after injection, 5 min of occlusion): −0.85 mv
- change in mean elevation of ST-segment vs control occlusion ([1]; occlusion immediately after injection, 15 sec of reperfusion): −0.40 mv
- change in mean elevation of ST-segment vs control occlusion ([1]; occlusion immediately after injection, 30 sec of occlusion): −1.20* mv
- change in mean elevation of ST-segment vs control occlusion ([1]; occlusion immediately after injection, 1 min of occlusion): −0.90* mv
- change in mean elevation of ST-segment vs control occlusion ([1]; occlusion immediately after injection, 2 min of occlusion): −1.25* mv
- change in mean elevation of ST-segment vs control occlusion ([1]; occlusion immediately after injection, 4 min of occlusion): −0.70 mv
- change in mean elevation of ST-segment vs control occlusion ([1]; occlusion immediately after injection, 5 min of occlusion): −0.80 mv
- effect on mean elevation of ST-segment during 5 min occlusion, in words ([1]; cats, 1,0 mg/kg i.v.): decreased the mean elevation of ST-segment
- effect on the behavior (locomotor activity) of Balb/c mice in open-field test, in words (Balb/c mice): neither activatory nor inhibitory effects
